Source: ChEMBL document CHEMBL3994622, “Design and synthesis of new RAF kinase-inhibiting antiproliferative quinoline derivatives. Part 2: Diarylurea derivatives” (Eur J Med Chem, 2017)

Legend:
Assay type in all cases: functional
UACC-62 = experiment: Growth inhibition of human UACC62 cells assessed as cell growth at 0.1 uM incubated for 48 hrs by sulforhodamine B assay relative to control; settings: UACC-62, 48 h, read-out: Activity
OVCAR-5 [1] = experiment: Growth inhibition of human OVCAR5 cells assessed as cell growth at 100 uM incubated for 48 hrs by sulforhodamine B assay relative to control; settings: OVCAR-5, 48 h, read-out: Activity
MOLT-4 = experiment: Growth inhibition of human MOLT4 cells assessed as cell growth at 0.1 uM incubated for 48 hrs by sulforhodamine B assay relative to control; settings: MOLT-4, 48 h, read-out: Activity
MCF7 [2] = experiment: Growth inhibition of human MCF7 cells assessed as cell growth at 0.1 uM incubated for 48 hrs by sulforhodamine B assay relative to control; settings: MCF7, 48 h, read-out: Activity
IGROV-1 [3] = experiment: Growth inhibition of human IGROV1 cells assessed as cell growth at 0.01 uM incubated for 48 hrs by sulforhodamine B assay relative to control; settings: IGROV-1, 48 h, read-out: Activity
IGROV-1 [4] = experiment: Growth inhibition of human IGROV1 cells assessed as cell growth at 0.1 uM incubated for 48 hrs by sulforhodamine B assay relative to control; settings: IGROV-1, 48 h, read-out: Activity
HT-29 = experiment: Growth inhibition of human HT-29 cells assessed as cell growth at 1 uM incubated for 48 hrs by sulforhodamine B assay relative to control; settings: HT-29, 48 h, read-out: Activity
BT-549 = experiment: Growth inhibition of human BT549 cells assessed as cell growth at 0.1 uM incubated for 48 hrs by sulforhodamine B assay relative to control; settings: BT-549, 48 h, read-out: Activity
NCI/ADR-RES = experiment: Growth inhibition of human NCI/ADR-RES cells assessed as cell growth at 1 uM incubated for 48 hrs by sulforhodamine B assay relative to control; settings: read-out: Activity
HL-60(TB) = experiment: Growth inhibition of human HL-60(TB) cells assessed as cell growth at 0.01 uM incubated for 48 hrs by sulforhodamine B assay relative to control; settings: HL-60, 48 h, read-out: Activity
CAKI-1 [5] = experiment: Growth inhibition of human Caki1 cells assessed as cell growth at 0.1 uM incubated for 48 hrs by sulforhodamine B assay relative to control; settings: CAKI-1, 48 h, read-out: Activity
HCT-116 [6] = experiment: Growth inhibition of human HCT116 cells assessed as cell growth at 1 uM incubated for 48 hrs by sulforhodamine B assay relative to control; settings: HCT-116, 48 h, read-out: Activity
PC-3 = experiment: Growth inhibition of human PC3 cells assessed as cell growth at 0.01 uM incubated for 48 hrs by sulforhodamine B assay relative to control; settings: PC-3, 48 h, read-out: Activity
HCC 2998 = experiment: Growth inhibition of human HCC2998 cells assessed as cell growth at 100 uM incubated for 48 hrs by sulforhodamine B assay relative to control; settings: HCC 2998, 48 h, read-out: Activity
M14 = experiment: Growth inhibition of human M14 cells assessed as cell growth at 3 uM incubated for 48 hrs by sulforhodamine B assay relative to control; settings: M14, 48 h, read-out: Activity
SNB-75 [7] = experiment: Growth inhibition of human SNB75 cells assessed as cell growth at 30 uM incubated for 48 hrs by sulforhodamine B assay relative to control; settings: SNB-75, 48 h, read-out: Activity
A498 = experiment: Growth inhibition of human A498 cells assessed as cell growth at 3 uM incubated for 48 hrs by sulforhodamine B assay relative to control; settings: A498, 48 h, read-out: Activity
COLO 205 = experiment: Growth inhibition of human COLO205 cells assessed as cell growth at 3 uM incubated for 48 hrs by sulforhodamine B assay relative to control; settings: COLO 205, 48 h, read-out: Activity
HOP-92 = experiment: Growth inhibition of human HOP92 cells assessed as cell growth at 30 uM incubated for 48 hrs by sulforhodamine B assay relative to control; settings: HOP-92, 48 h, read-out: Activity
CAKI-1 [8] = experiment: Growth inhibition of human Caki1 cells assessed as cell growth at 0.3 uM incubated for 48 hrs by sulforhodamine B assay relative to control; settings: CAKI-1, 48 h, read-out: Activity
OVCAR-5 [9] = experiment: Growth inhibition of human OVCAR5 cells assessed as cell growth at 0.3 uM incubated for 48 hrs by sulforhodamine B assay relative to control; settings: OVCAR-5, 48 h, read-out: Activity
SF-268 = experiment: Growth inhibition of human SF268 cells assessed as cell growth at 0.3 uM incubated for 48 hrs by sulforhodamine B assay relative to control; settings: SF-268, 48 h, read-out: Activity
Hs-578T = experiment: Growth inhibition of human Hs 578T cells assessed as cell growth at 0.003 uM incubated for 48 hrs by sulforhodamine B assay relative to control; settings: read-out: Activity
HOP-62 = experiment: Growth inhibition of human HOP62 cells assessed as cell growth at 0.3 uM incubated for 48 hrs by sulforhodamine B assay relative to control; settings: HOP-62, 48 h, read-out: Activity
SK-MEL-28 = experiment: Growth inhibition of human SK-MEL-28 cells assessed as cell growth at 0.03 uM incubated for 48 hrs by sulforhodamine B assay relative to control; settings: SK-MEL-28, 48 h, read-out: Activity
SNB-75 [10] = experiment: Growth inhibition of human SNB75 cells assessed as cell growth at 0.003 uM incubated for 48 hrs by sulforhodamine B assay relative to control; settings: SNB-75, 48 h, read-out: Activity
MCF7 [11] = experiment: Growth inhibition of human MCF7 cells assessed as cell growth at 3 uM incubated for 48 hrs by sulforhodamine B assay relative to control; settings: MCF7, 48 h, read-out: Activity
NCI-H23 = experiment: Growth inhibition of human NCI-H23 cells assessed as cell growth at 3 uM incubated for 48 hrs by sulforhodamine B assay relative to control; settings: NCI-H23, 48 h, read-out: Activity
RPMI-8226 = experiment: Growth inhibition of human RPMI8226 cells assessed as cell growth at 0.003 uM incubated for 48 hrs by sulforhodamine B assay relative to control; settings: RPMI-8226, 48 h, read-out: Activity
RXF 393 = experiment: Growth inhibition of human RXF393 cells assessed as cell growth at 0.003 uM incubated for 48 hrs by sulforhodamine B assay relative to control; settings: RXF 393, 48 h, read-out: Activity
HCT-116 [12] = experiment: Growth inhibition of human HCT116 cells assessed as cell growth at 0.03 uM incubated for 48 hrs by sulforhodamine B assay relative to control; settings: HCT-116, 48 h, read-out: Activity
HCT-15 = experiment: Growth inhibition of human HCT15 cells assessed as cell growth at 3 uM incubated for 48 hrs by sulforhodamine B assay relative to control; settings: HCT-15, 48 h, read-out: Activity
SK-MEL-2 = experiment: Growth inhibition of human SK-MEL-2 cells assessed as cell growth at 3 uM incubated for 48 hrs by sulforhodamine B assay relative to control; settings: SK-MEL-2, 48 h, read-out: Activity
U-251 = experiment: Growth inhibition of human U251 cells assessed as cell growth at 3 uM incubated for 48 hrs by sulforhodamine B assay relative to control; settings: U-251, 48 h, read-out: Activity

| SMILES | growth at 0.1 µM (UACC-62) [%] | growth at 100 µM (OVCAR-5 [1]) [%] | growth at 0.1 µM (MOLT-4) [%] | growth at 0.1 µM (MCF7 [2]) [%] | growth at 0.01 µM (IGROV-1 [3]) [%] | growth at 0.1 µM (IGROV-1 [4]) [%] | growth at 1 µM (HT-29) [%] | growth at 0.1 µM (BT-549) [%] | growth at 1 µM (NCI/ADR-RES) [%] | growth at 0.01 µM (HL-60(TB)) [%] | growth at 0.1 µM (CAKI-1 [5]) [%] | growth at 1 µM (HCT-116 [6]) [%] | growth at 0.01 µM (PC-3) [%] | growth at 100 µM (HCC 2998) [%] | growth at 3 µM (M14) [%] | growth at 30 µM (SNB-75 [7]) [%] | growth at 3 µM (A498) [%] | growth at 3 µM (COLO 205) [%] | growth at 30 µM (HOP-92) [%] | growth at 0.3 µM (CAKI-1 [8]) [%] | also measured |
| --- | --- | --- | --- | --- | --- | --- | --- | --- | --- | --- | --- | --- | --- | --- | --- | --- | --- | --- | --- | --- | --- |
| COc1cc2cc(Oc3ccc(NC(=O)Nc4ccc(Cl)c(Cl)c4)cc3)c(C)nc2cc1OC | 89 | -44 | 109 | 92 | 110 | 112 | 108 | 88 | 76 | 104 | 87 | 76 | 96 | -9 | – | – | – | – | – | – | – |
| COc1cc2cc(Oc3ccc(NC(=O)Nc4cc(C(F)(F)F)cc(C(F)(F)F)c4)cc3)c(C)nc2cc1OC | 96 | -78 | 104 | 92 | 96 | 95 | 75 | 94 | 62 | 89 | 90 | 33 | 92 | -92 | – | – | – | – | – | – | – |
| COc1cc2cc(Oc3ccc(NC(=O)Nc4ccc(Cl)c(C(F)(F)F)c4)cc3)c(C)nc2cc1OC | – | – | – | – | – | – | – | – | – | – | – | – | – | – | 18 | -44 | 1 | -67 | -79 | 87 | growth at 0.3 µM (OVCAR-5 [9]): 113%; growth at 0.3 µM (SF-268): 100%; growth at 0.003 µM (Hs-578T): 83%; growth at 0.3 µM (HOP-62): 86%; growth at 0.03 µM (SK-MEL-28): 98%; growth at 0.003 µM (SNB-75 [10]): 90%; growth at 3 µM (MCF7 [11]): 7%; growth at 3 µM (NCI-H23): 5%; growth at 0.003 µM (RPMI-8226): 100%; growth at 0.003 µM (RXF 393): 106%; growth at 0.03 µM (HCT-116 [12]): 91%; growth at 3 µM (HCT-15): 16%; growth at 3 µM (SK-MEL-2): -29%; growth at 3 µM (U-251): 6% |
| Cc1nc2cc(O)c(O)cc2cc1Oc1ccc(NC(=O)Nc2ccc(Cl)c(Cl)c2)cc1 | – | – | – | – | – | – | – | – | – | – | – | – | – | – | 86 | -4 | 79 | 85 | -20 | 95 | growth at 0.3 µM (OVCAR-5 [9]): 106%; growth at 0.3 µM (SF-268): 107%; growth at 0.003 µM (Hs-578T): 93%; growth at 0.3 µM (HOP-62): 108%; growth at 0.03 µM (SK-MEL-28): 87%; growth at 0.003 µM (SNB-75 [10]): 80%; growth at 3 µM (MCF7 [11]): 87%; growth at 3 µM (NCI-H23): 87%; growth at 0.003 µM (RPMI-8226): 93%; growth at 0.003 µM (RXF 393): 100%; growth at 0.03 µM (HCT-116 [12]): 89%; growth at 3 µM (HCT-15): 62%; growth at 3 µM (SK-MEL-2): 107%; growth at 3 µM (U-251): 71% |
